Test results published in patent US11702646B2, “Methods for modulating RNA splicing” (PTC THERAPEUTICS, INC., priority 2016, dated 2023).

Assays:
GM04856 lymphocyte cells = experiment: Endpoint RT-PCR for iExon-containing spliced product in GM04856 lymphocyte cells; assay type: cell-based; conditions: 10 nM, 1 μM or 10 μM, ~20 h, FIGS. 2A-D and 3-6A
Description: Cell treatment: GM04856 lymphocyte cells were diluted in a medium composed of DMEM, 10% FBS and 1× Pen/Strep to a concentration of 2.5e5 cells/mL. 2 mL (500K cells) were seeded in 6-well plates and recovered for 4 h at 37° C., 5% CO2. Compound dilutions were prepared as 2× compound stock in medium (e.g. for final 100 nM, make a 200 nM stock). After 4 h recovery, 2 mL of the 2× compound stock were added to each well, resulting in 4 mL/well with 1× final compound concentration. The cells were incubated for ˜20 h at 37° C., 5% CO2. After incubation, the cells were pelleted for 5 min at 1000 rpm. The supernatant was vacuum-removed and the cells were resuspended in 350 μl of RLT buffer (w/10 μl/mL beta-mercapto-ethanol, RNeasy kit). Total RNA was isolated using the RNeasy Mini Kit from Qiagen according to the manufacturer's instructions. The concentration of the resulting total RNA was determined using Nanodrop and diluted with water to a final concentration of 25 ng/μL.
Endpoint PCR: 20 μL endpoint RT-PCR5 were set up in 96-well plates using the AgPath-ID One-Step RT-PCR Reagents (Applied Biosystems) according to the manufacturer. Each reaction contained 200 nM forward primer, 200 nM reverse primer, and 50 ng total RNA. […] 10 μL of each RT-PCR reactions were analyzed on 2% 48-well E-Gels (Invitrogen) (pre-run 1 min, run 14 min) and imaged using an BioRad Gel Doc EZ Imager. […]

[1] = system: RNA transcripts in PNN cell line; experiment: ΔPSI (iExon production / exon inclusion), FET and Fold Decrease of RNA transcripts in PNN cell line treated at 3 μM; assay type: cell-based; conditions: for FD PNN: Fold Decrease
Description: Results: The statistically significant value for the likelihood of iExon production (ΔPSI) according to the Fisher's Exact Test (FET) for PNN and HDF cell lines treated with Compound 774 at 3 μM and Fold Decrease (FD) for certain genes tested, where NR represents “Not Reported,” is shown in Table 10.
The ΔPSI for inclusion of an iExon and resulting modulated expression of RNA transcripts identified is represented by stars, where one star (*) represents ≤25% change in expression, where two stars (**) represent change in expression in a range from <26% to ≤50% change, where three stars (***) represent change in expression in a range from <51% to ≤75% change, and, where four stars (****) represent change in expression in a range from <75% to ≤100% change.
Results: The statistically significant value for the likelihood of exon inclusion (ΔPSI) according to the Fisher's Exact Test (FET) for PNN and HDF cell lines treated with Compound 774 at 3 μM and Fold Decrease (FD) for certain genes tested, where NR represents “Not Reported,” is shown in Table 10a.
The ΔPSI for inclusion of an exon and resulting modulated expression of RNA transcripts identified is represented by stars, where one star (*) represents ≤25% change in expression, where two stars (**) represent change in expression in a range from <26% to ≤50% change, where three stars (***) represent change in expression in a range from <51% to ≤75% change, and, where four stars (****) represent change in expression in a range from <75% to ≤100% change.

[2] = gene FAM198B, exon e3, PNN cells, 3 μM
[3] = gene PRUNE2, exon e18, PNN cells, 3 μM

CCc1nc(C)cn2nc(-c3cc(=O)n4cc(C5CCN(C)CC5)cc(C)c4n3)cc12 [Compound 774]
PCR product containing the intronic-derived exon (endpoint RT-PCR, agarose gel) (GM04856 lymphocyte cells): appearance of a slower migrating PCR product containing the intronic-derived exon
FD PNN [1, 2]: −1.81
FD PNN [1, 3]: −0.52
ΔPSI (PNN) ([1]; gene APLP2, exon e7, PNN cells, 3 μM): ** (two stars (**) represent change in expression in a range from <26% to ≤50% change)
ΔPSI (PNN) ([1]; gene AXIN1, exon e9, PNN cells, 3 μM): ** (two stars (**) represent change in expression in a range from <26% to ≤50% change)
ΔPSI (PNN) ([1]; gene CECR7, exon e5, PNN cells, 3 μM): * (one star (*) represents ≤25% change in expression)
ΔPSI (PNN) ([1]; gene DAGLB, exon e4, PNN cells, 3 μM): * (one star (*) represents ≤25% change in expression)
ΔPSI (PNN) ([1]; gene DLGAP4, exon e8, PNN cells, 3 μM): * (one star (*) represents ≤25% change in expression)
ΔPSI (PNN) ([1]; gene ERCC1, exon e8, PNN cells, 3 μM): * (one star (*) represents ≤25% change in expression)
ΔPSI (PNN) ([1]; gene ERGIC3, exon e8, PNN cells, 3 μM): * (one star (*) represents ≤25% change in expression)
ΔPSI (PNN) [1, 2]: * (one star (*) represents ≤25% change in expression)
ΔPSI (PNN) ([1]; gene GGCT, exon e2, PNN cells, 3 μM): ** (two stars (**) represent change in expression in a range from <26% to ≤50% change)
ΔPSI (PNN) ([1]; gene HAT1, exon e3, PNN cells, 3 μM): * (one star (*) represents ≤25% change in expression)
ΔPSI (PNN) ([1]; gene HPS1, exon e5, PNN cells, 3 μM): * (one star (*) represents ≤25% change in expression)
ΔPSI (PNN) ([1]; gene INPP5K, exon e2, PNN cells, 3 μM): * (one star (*) represents ≤25% change in expression)
ΔPSI (PNN) ([1]; gene MADD, exon e21, PNN cells, 3 μM): * (one star (*) represents ≤25% change in expression)
ΔPSI (PNN) ([1]; gene PPHLN1, exon e3, PNN cells, 3 μM): *** (three stars (***) represent change in expression in a range from <51% to ≤75% change)
ΔPSI (PNN) [1, 3]: * (one star (*) represents ≤25% change in expression)
ΔPSI (PNN) ([1]; gene RAP1A, exon e2, PNN cells, 3 μM): * (one star (*) represents ≤25% change in expression)
ΔPSI (PNN) ([1]; gene RNFT1, exon e3, PNN cells, 3 μM): * (one star (*) represents ≤25% change in expression)
ΔPSI (PNN) ([1]; gene RPS6KB2, exon e2, PNN cells, 3 μM): * (one star (*) represents ≤25% change in expression)
ΔPSI (PNN) ([1]; gene SH3YL1, exon e9, PNN cells, 3 μM): * (one star (*) represents ≤25% change in expression)
ΔPSI (PNN) ([1]; gene SKA2, exon e3, PNN cells, 3 μM): * (one star (*) represents ≤25% change in expression)
ΔPSI (PNN) ([1]; gene SPATA18, exon e4, PNN cells, 3 μM): ** (two stars (**) represent change in expression in a range from <26% to ≤50% change)
ΔPSI (PNN) ([1]; gene STRN3, exon e8, PNN cells, 3 μM): **** (four stars (****) represent change in expression in a range from <75% to ≤100% change)
ΔPSI (PNN) ([1]; gene TMEM189-UBE2V1, exon e6, PNN cells, 3 μM): * (one star (*) represents ≤25% change in expression)
ΔPSI (PNN) ([1]; gene TRIM65, exon e5, PNN cells, 3 μM): *** (three stars (***) represent change in expression in a range from <51% to ≤75% change)
ΔPSI (PNN) ([1]; gene TUBE1, exon e4, PNN cells, 3 μM): * (one star (*) represents ≤25% change in expression)
ΔPSI (PNN) ([1]; gene UBE2V1, exon e3, PNN cells, 3 μM): * (one star (*) represents ≤25% change in expression)
ΔPSI (PNN) ([1]; gene VPS29, exon e2, PNN cells, 3 μM): ** (two stars (**) represent change in expression in a range from <26% to ≤50% change)
ΔPSI (PNN) ([1]; gene ZFP82, iExon inclusion position i4, PNN cell line, Compound 774 at 3 μM): ** (two stars (**) represent change in expression in a range from <26% to ≤50% change)
ΔPSI (PNN) ([1]; gene ZNF37BP, iExon inclusion position i4, PNN cell line, Compound 774 at 3 μM): **** (four stars (****) represent change in expression in a range from <75% to ≤100% change)
ΔPSI (PNN) ([1]; gene ZNF138, iExon inclusion position i3, PNN cell line, Compound 774 at 3 μM): *** (three stars (***) represent change in expression in a range from <51% to ≤75% change)
ΔPSI (PNN) ([1]; gene ZNF232, iExon inclusion position i4, PNN cell line, Compound 774 at 3 μM): * (one star (*) represents ≤25% change in expression)
ΔPSI (PNN) ([1]; gene ZNF680, exon e3, PNN cells, 3 μM): * (one star (*) represents ≤25% change in expression)
